From US20250034150A1, “BTK INHIBITORS” (BIOGEN MA INC., priority 2021, published 2025)
Counter-ions that a name gives are not always drawn. Like-named read-outs stand apart in the source and are kept apart here.

What was measured:
BTK = target: T1, BTK (Homo sapiens, UniProt Q06187); experiment: In Vitro BTK Kinase Assay: Btk-PolyGAT-LS Assay; type: biochemical; conditions: active BTK enzyme 0.25 nM, polyGAT 100 nM, 30 minutes, TRF readout; read-out: In Vitro BTK Kinase Assay IC50 Score
T1 construct: purchased Upstate 14-552
T1 sequence (Q06187 whole entry): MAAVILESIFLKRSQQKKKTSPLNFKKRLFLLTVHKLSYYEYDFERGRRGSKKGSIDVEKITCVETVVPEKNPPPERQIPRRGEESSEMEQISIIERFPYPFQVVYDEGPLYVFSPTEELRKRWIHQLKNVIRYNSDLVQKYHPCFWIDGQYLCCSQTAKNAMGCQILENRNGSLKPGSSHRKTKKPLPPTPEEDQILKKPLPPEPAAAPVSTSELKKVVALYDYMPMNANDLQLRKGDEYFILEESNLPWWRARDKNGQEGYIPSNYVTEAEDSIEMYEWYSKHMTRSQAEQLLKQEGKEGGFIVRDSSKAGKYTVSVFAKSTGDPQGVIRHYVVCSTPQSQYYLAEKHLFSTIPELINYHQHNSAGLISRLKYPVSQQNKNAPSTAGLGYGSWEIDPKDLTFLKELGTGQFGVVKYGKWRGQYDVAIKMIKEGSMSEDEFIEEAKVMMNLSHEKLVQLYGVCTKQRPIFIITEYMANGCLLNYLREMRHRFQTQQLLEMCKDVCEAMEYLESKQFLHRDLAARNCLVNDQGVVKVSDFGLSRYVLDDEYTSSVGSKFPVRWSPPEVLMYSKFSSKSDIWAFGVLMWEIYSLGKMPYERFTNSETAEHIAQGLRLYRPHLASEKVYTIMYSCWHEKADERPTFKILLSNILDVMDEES
In short: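 IC50 values came from a four-parameter fit, with DMSO controls as 100% activity and EDTA controls as 0%. The signal was TR-FRET from a Tb-PY20 antibody binding fluorescein-polyGAT (100 nM) phosphorylated by 0.25 nM BTK. Kinase reactions used 10 μM ATP, a 4-fold compound titration, and ran 30 minutes before EDTA stop.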

[1] = tested on: CD69 expression on CD19+ B cells in human whole blood; experiment: In Vitro whole blood CD69 Assay; type: cell-based; conditions: B-cell, read-out: In Vitro HWB CD69 Assay IC50 Score
In short: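 Heparinized healthy-donor human whole blood was preincubated with compound (0.1% DMSO) for 30 min at 37 °C. Stimulation used 0.1 µg/mL anti-IgD-dextran or 20 µg/mL rabbit F(ab′)2 anti-IgD for 18–22 h at 37 °C. CD69 on gated CD19+ B cells was then measured by flow cytometry.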

[2] = human heparinized whole blood, anti-human IgD stimulation overnight, CD19+ B cells, flow cytometry

Row | Compound | IC50 (BTK) [nM] | IC50 [1, 2] [nM] | IC50 ([1]; Homo sapiens) [nM]
1 | Cn1cc(-c2cn3nccc3c(-c3ccc(CNC(=O)c4cn(C(C)(C)C)nn4)c(C(F)F)c3)n2)cn1 [Example 105, 1-(tert-butyl)-N-(2-(difluoromethyl)-4-(6-(1-methyl-1H-pyrazol-4-yl)pyrazolo[1,5-a]pyrazin-4-yl)benzyl)-1H-1,2,3-triazole-4-carboxamide] | < 1 | < 1000 | –
2 | Cn1cc(-c2cn3nccc3c(-c3ccc(CN4CCN(CC(C)(C)C)CC4=O)cc3)n2)cn1 [Example 33, 1-(4-(6-(1-methyl-1H-pyrazol-4-yl)pyrazolo[1,5-a]pyrazin-4-yl)benzyl)-4-neopentylpiperazin-2-one] | 1 to 10 | 1000 to 10000 | –
3 | Cn1cc(-c2cn3nccc3c(N3CCC(C)(CNC(=O)c4noc(C(C)(C)C)n4)CC3)n2)cn1 [Example 41, 5-(tert-butyl)-N-((4-methyl-1-(6-(1-methyl-1H-pyrazol-4-yl)pyrazolo[1,5-a]pyrazin-4-yl)piperidin-4-yl)methyl)-1,2,4-oxadiazole-3-carboxamide] | 1 to 10 | 1000 to 10000 | –
4 | CC1CN(c2nc(-c3cnn(C)c3)cn3nccc23)CCC1CNC(=O)c1noc(C(C)(C)C)n1 (stereo not shown) [Example 144, 5-(tert-butyl)-N-((3-methyl-1-(6-(1-methyl-1H-pyrazol-4-yl)pyrazolo[1,5-a]pyrazin-4-yl)piperidin-4-yl)methyl)-1,2,4-oxadiazole-3-carboxamide] | 1 to 10 | – | < 1000
5 | Cn1cc(-c2cn3nccc3c(N3CC[C@H](CNC(=O)c4coc(C(C)(C)C)n4)[C@H](F)C3)n2)cn1 [Example 153, 2-(tert-butyl)-N-(((3S,4R)-3-fluoro-1-(6-(1-methyl-1H-pyrazol-4-yl)pyrazolo[1,5-a]pyrazin-4-yl)piperidin-4-yl)methyl)oxazole-4-carboxamide] | 1 to 10 | 1000 to 10000 | –
6 | Cn1cc(-c2cn3nccc3c(-c3ccc(CNC(=O)c4nnn(C(C)(C)C)n4)cc3F)n2)cn1 [Example 114, 2-(tert-butyl)-N-(3-fluoro-4-(6-(1-methyl-1H-pyrazol-4-yl)pyrazolo[1,5-a]pyrazin-4-yl)benzyl)-2H-tetrazole-5-carboxamide] | < 1 | < 1000 | –
7 | Cc1cc(-c2nc(-c3cnn(C)c3)cn3nccc23)ccc1CNC(=O)c1cnn(C(C)(C)C)c1 [Example 17, 1-(tert-butyl)-N-(2-methyl-4-(6-(1-methyl-1H-pyrazol-4-yl)pyrazolo[1,5-a]pyrazin-4-yl)benzyl)-1H-pyrazole-4-carboxamide] | < 1 | < 1000 | –
8 | Cn1cc(-c2cn3nccc3c(-c3ccc(CNC(=O)c4nnc(C(C)(C)C)o4)c(F)c3)n2)cn1 [Example 6, 5-(tert-butyl)-N-(2-fluoro-4-(6-(1-methyl-1H-pyrazol-4-yl)pyrazolo[1,5-a]pyrazin-4-yl)benzyl)-1,3,4-oxadiazole-2-carboxamide] | < 1 | – | < 1000
9 | Cn1cc(-c2cn3nccc3c(-c3ccc4c(c3)CN(CC(F)(F)F)CC[C@H]4NC(=O)c3cn(C(C)(C)C)nn3)n2)cn1 [Example 40, (R)-1-(tert-butyl)-N-(8-(6-(1-methyl-1H-pyrazol-4-yl)pyrazolo[1,5-a]pyrazin-4-yl)-2-(2,2,2-trifluoroethyl)-2,3,4,5-tetrahydro-1H-benzo[c]azepin-5-yl)-1H-1,2,3-triazole-4-carboxamide] | 1 to 10 | < 1000 | –
10 | Cn1cc(-c2cn3nccc3c(N3CC[C@@H](CNC(=O)c4noc(C(C)(C)C)n4)[C@@H](F)C3)n2)cn1 (single isomer, unassigned) [Example 156] | 1 to 10 | < 1000 | –
11 | Cn1cc(-c2cc3nccn3c(-c3ccc(CNC(=O)c4nc(C5(CF)CC5)no4)cc3)n2)cn1 [Example 63, 3-(1-(fluoromethyl)cyclopropyl)-N-(4-(7-(1-methyl-1H-pyrazol-4-yl)imidazo[1,2-c]pyrimidin-5-yl)benzyl)-1,2,4-oxadiazole-5-carboxamide] | 1 to 10 | – | 1000 to 10000
12 | Cc1cc(-c2nc(-c3cnn(C)c3)cn3nccc23)ccc1CN1CCN(CC(C)C)CC1=O [Example 30, 4-isobutyl-1-(2-methyl-4-(6-(1-methyl-1H-pyrazol-4-yl)pyrazolo[1,5-a]pyrazin-4-yl)benzyl)piperazin-2-one] | 1 to 10 | 1000 to 10000 | –
13 | Cn1cc(-c2cc3nccn3c(-c3ccc(CNC(=O)c4nc(C(C)(C)C)no4)cc3)n2)cn1 [Example 64, 3-(tert-butyl)-N-(4-(7-(1-methyl-1H-pyrazol-4-yl)imidazo[1,2-c]pyrimidin-5-yl)benzyl)-1,2,4-oxadiazole-5-carboxamide] | < 1 | < 1000 | –
14 | Cn1cc(-c2cn3nccc3c(N3CCC(C)(CNC(=O)c4cn(C(C)(C)C)nn4)CC3)n2)cn1 [Example 44, 1-(tert-butyl)-N-((4-methyl-1-(6-(1-methyl-1H-pyrazol-4-yl)pyrazolo[1,5-a]pyrazin-4-yl)piperidin-4-yl)methyl)-1H-1,2,3-triazole-4-carboxamide] | 10 to 1000 | 1000 to 10000 | –
15 | Cc1cc(-c2nc(-c3cnn(C)c3)cc3nccn23)ccc1CNC(=O)c1noc(C(C)(C)C)n1 [Example 78, 5-(tert-butyl)-N-(2-methyl-4-(7-(1-methyl-1H-pyrazol-4-yl)imidazo[1,2-c]pyrimidin-5-yl)benzyl)-1,2,4-oxadiazole-3-carboxamide] | < 1 | < 1000 | –
16 | Cn1cc(-c2cn3nccc3c(-c3ccc(CNC(=O)c4nc(C(C)(C)C)no4)c(C(F)F)c3)n2)cn1 [Example 100, 3-(tert-butyl)-N-(2-(difluoromethyl)-4-(6-(1-methyl-1H-pyrazol-4-yl)pyrazolo[1,5-a]pyrazin-4-yl)benzyl)-1,2,4-oxadiazole-5-carboxamide] | < 1 | < 1000 | –
17 | CC(C)(C)n1nnc(C(=O)NCc2ccc(-c3nc(N4CCOCC4)cn4nccc34)cc2)n1 [Example 25, 2-(tert-butyl)-N-(4-(6-morpholinopyrazolo[1,5-a]pyrazin-4-yl)benzyl)-2H-tetrazole-5-carboxamide] | 10 to 1000 | 1000 to 10000 | –
18 | CN1CCN(c2cn3nccc3c(-c3ccc(CNC(=O)c4cn(C(C)(C)C)nn4)c(F)c3)n2)CC1 [Example 128, 1-(tert-butyl)-N-(2-fluoro-4-(6-(4-methylpiperazin-1-yl)pyrazolo[1,5-a]pyrazin-4-yl)benzyl)-1H-1,2,3-triazole-4-carboxamide trifluoroacetate] | 10 to 1000 | 1000 to 10000 | –
19 | Cn1cc(-c2cc3nccn3c(-c3ccc(CNC(=O)c4cn(C(C)(C)C)nn4)cc3)n2)cn1 [Example 59, 1-(tert-butyl)-N-(4-(7-(1-methyl-1H-pyrazol-4-yl)imidazo[1,2-c]pyrimidin-5-yl)benzyl)-1H-1,2,3-triazole-4-carboxamide] | 1 to 10 | < 1000 | –
20 | Cn1cc(-c2cn3nccc3c(-c3ccc(CNC(=O)c4ccn(C(C)(C)C)n4)c(F)c3)n2)cn1 [Example 11, 1-(tert-butyl)-N-(2-fluoro-4-(6-(1-methyl-1H-pyrazol-4-yl)pyrazolo[1,5-a]pyrazin-4-yl)benzyl)-1H-pyrazole-3-carboxamide] | 1 to 10 | 1000 to 10000 | –
21 | Cn1cc(-c2cn3nccc3c(-c3cc(F)c(CNC(=O)c4cnn(C(C)(C)C)n4)cc3F)n2)cn1 [Example 97, 2-(tert-butyl)-N-(2,5-difluoro-4-(6-(1-methyl-1H-pyrazol-4-yl)pyrazolo[1,5-a]pyrazin-4-yl)benzyl)-2H-1,2,3-triazole-4-carboxamide] | 1 to 10 | 1000 to 10000 | –
22 | Cn1cc(-c2cn3nccc3c(-c3ccc(CNC(=O)c4cnn(C(C)(C)C)c4)c(C(F)F)c3)n2)cn1 [Example 107, 1-(tert-butyl)-N-(2-(difluoromethyl)-4-(6-(1-methyl-1H-pyrazol-4-yl)pyrazolo[1,5-a]pyrazin-4-yl)benzyl)-1H-pyrazole-4-carboxamide] | < 1 | < 1000 | –
23 | Cc1cc(-c2nc(-c3cnn(C)c3)cn3nccc23)ccc1CNC(=O)c1nnc(C(C)(C)C)o1 [Example 14, 5-(tert-butyl)-N-(2-methyl-4-(6-(1-methyl-1H-pyrazol-4-yl)pyrazolo[1,5-a]pyrazin-4-yl)benzyl)-1,3,4-oxadiazole-2-carboxamide] | < 1 | – | < 1000
24 | Cn1cc(-c2cn3nccc3c(-c3ccc(CNC(=O)c4nc(C(C)(C)C)no4)cc3)n2)cn1 [Example 19, 3-(tert-butyl)-N-(4-(6-(1-methyl-1H-pyrazol-4-yl)pyrazolo[1,5-a]pyrazin-4-yl)benzyl)-1,2,4-oxadiazole-5-carboxamide] | < 1 | < 1000 | –
25 | Cn1cc(-c2cn3nccc3c(-c3ccc(CN4CCN(CC(C)(C)C)CC4=O)c(F)c3)n2)cn1 [Example 35, 1-(2-fluoro-4-(6-(1-methyl-1H-pyrazol-4-yl)pyrazolo[1,5-a]pyrazin-4-yl)benzyl)-4-neopentylpiperazin-2-one] | 1 to 10 | 1000 to 10000 | –
26 | Cn1cc(-c2cn3nccc3c(-c3ccc(CNC(=O)c4coc(C(C)(C)C)n4)c(C(F)F)c3)n2)cn1 [Example 101, 2-(tert-butyl)-N-(2-(difluoromethyl)-4-(6-(1-methyl-1H-pyrazol-4-yl)pyrazolo[1,5-a]pyrazin-4-yl)benzyl)oxazole-4-carboxamide] | 1 to 10 | 1000 to 10000 | –
